From patent US12152048B2, “Nitroxoline prodrug and use thereof” (Jiangsu Yahong Meditech Co., Ltd., priority 2018, dated 2024)
Converted amounts (≈) assume the structure as drawn.

How the values were obtained:
[1] = Determination of water solubility in phosphate buffer; assay type: physicochemical; settings: for solubility at 24 h: thermodynamic from solid
Description: Experimental instruments: 96-well filter plate (MSHVN4510 or MSHVN4550, Millipore); electronic digital display vortex mixer (MS3 Digital, IKA); multi-purpose vacuum pump (circulating water type, SHB-111, Zhengzhou Greatwall Scientific Industrial and Trade Co., Ltd.); balance (XSLT05, Mettler-Toledo); comfortable mixer (Eppendorf AG 22331 Hamburg, Eppendorf); liquid chromatography (LC-3AD, Shimadzu); mass spectrometry (API4000, Applied Biosystems, USA); sample injector (Anylytics AG System, CTC). Nitroxoline was prepared according to the method disclosed in Journal of Heterocyclic Chemistry, 1971, vol. 8, p 821 by Wisdom Pharmaceutical Co., Ltd.
Experimental process: 500 μL of phosphate buffer (pH=1.2, 4.5, 6.8 or 7.4) were added to a glass flask, to which 2 mg of compound powder were added. The flask was sealed with a cap and shaked on a mixer (VORTEX-GENIE2) at room temperature for 24 hours. The solution was subjected to vacuum filtration, and the filtrate was processed to determine the compound concentration by LC/MS/MS.

[2] = Stability in mouse liver microsome; assay type: in vitro ADME; settings: 2 μM, 37° C., 30 minutes
Stability in dog plasma = assay type: in vitro ADME
[3] = Stability in human plasma
Description: Experimental instruments: thermostatic shaker (SHA-B, Guohua Electric Appliance Co., Ltd.); centrifuge (5810R, Eppendorf); mass spectrometry (AP4000, Applied Biosystems, USA); liquid chromatography (LC-30AD, Shimadzu); sample injector (CTC Analytics AG System, CTC).
Test animals: plasma of human (batch number: BRH1343165), rat (batch number: RAT336728), mouse (batch number: MSE280000), dog (batch number: BGL99137) and monkey (batch number: PH-Monkey-20180821) are purchased from Shanghai Sixin Biological Technology Co., Ltd.
Experimental process: the compound of the present invention was dissolved in an organic solvent to obtain a 1 mM working solution. 3 μL of the working solution were added to 597 μL of pre-incubated human or rat plasma and mixed well. 50 μL of the solution were immediately taken out as the 0 minute sample. The remaining sample was incubated at 37° C., and 50 μL of sample were taken out at 15, 30, 60 and 120 minutes respectively. All the samples taken out were immediately processed to precipitate protein, and centrifuged to obtain a supermate for the determination of the compound concentration by LC/MS/MS.

[4] = Stability in dog liver microsome; settings: 2 μM, 37° C., 30 minutes
[5] = Stability in rat liver microsome; settings: 2 μM, 37° C., 30 minutes
[6] = Stability in human liver microsome; settings: 2 μM, 37° C., 30 minutes
[7] = Stability in plasma, overall conclusion (species not stated); settings: conclusion in words
[8] = aqueous buffer, phosphate buffer pH 7.4, room temperature

Structure (SMILES)	solubility at 24 h [1, 8]	Percentage of the compound remaining in mouse liver microsome ([2]; with coenzyme)	Percentage of the compound remaining in mouse liver microsome ([2]; without coenzyme)	Percentage of the compound remaining in plasma (Stability in rat plasma; 0 minute)	Percentage of the compound remaining in plasma (Stability in rat plasma; 37° C., 15 minutes)	Percentage of the compound remaining in plasma (Stability in rat plasma; 37° C., 30 minutes)	Percentage of the compound remaining in plasma (Stability in rat plasma; 37° C., 60 minutes)	Percentage of the compound remaining in plasma (Stability in rat plasma; 37° C., 120 minutes)	Percentage of the compound remaining in plasma ([3]; 0 minute)	Percentage of the compound remaining in plasma ([3]; 37° C., 15 minutes)	Percentage of the compound remaining in plasma ([3]; 37° C., 30 minutes)	Percentage of the compound remaining in plasma ([3]; 37° C., 60 minutes)	Percentage of the compound remaining in plasma ([3]; 37° C., 120 minutes)	Percentage of the compound remaining in dog liver microsome ([4]; with coenzyme)	Percentage of the compound remaining in dog liver microsome ([4]; without coenzyme)	Percentage of the compound remaining in rat liver microsome ([5]; with coenzyme)	Percentage of the compound remaining in rat liver microsome ([5]; without coenzyme)	Percentage of the compound remaining in human liver microsome ([6]; with coenzyme)	Percentage of the compound remaining in human liver microsome ([6]; without coenzyme)	stability in plasma [7]	also measured
CCC(NC(=O)OCOc1ccc([N+](=O)[O-])c2cccnc12)C(=O)OC (centres unmarked) [Compound 54, methyl 2-(((5-nitroquinolin-8-yloxy)methoxy)formamido)butanoate]	24.4 µg/mL (≈ 67.3 µM)	9.85%	31.90%	100.0%	0.0%	0.0%	0.0%	0.0%	100.0%	108.6%	103.3%	93.4%	71.9%	61.38%	70.31%	10.77%	13.97%	31.49%	29.40%	high stability	Percentage of the compound remaining in plasma (Stability in dog plasma; 0 minute): 100.0%; Percentage of the compound remaining in plasma (Stability in dog plasma; 37° C., 15 minutes): 100.3%; Percentage of the compound remaining in plasma (Stability in dog plasma; 37° C., 30 minutes): 99.2%; Percentage of the compound remaining in plasma (Stability in dog plasma; 37° C., 60 minutes): 92.4%; Percentage of the compound remaining in plasma (Stability in dog plasma; 37° C., 120 minutes): 74.7%
CCC(C)C(NC(=O)OCOc1ccc([N+](=O)[O-])c2cccnc12)C(=O)OC (centres unmarked) [Compound 55, methyl 3-methyl-2-(((5-nitroquinolin-8-yloxy)methoxy)formamido)pentanoate]	15.5 µg/mL (≈ 39.7 µM)	2.01%	90.39%	100.0%	48.9%	24.7%	5.0%	0.3%	100.0%	91.3%	94.5%	92.1%	68.7%	70.73%	84.65%	8.58%	52.76%	61.24%	81.91%	high stability	Percentage of the compound remaining in plasma (Stability in dog plasma; 0 minute): 100.0%; Percentage of the compound remaining in plasma (Stability in dog plasma; 37° C., 15 minutes): 99.6%; Percentage of the compound remaining in plasma (Stability in dog plasma; 37° C., 30 minutes): 97.5%; Percentage of the compound remaining in plasma (Stability in dog plasma; 37° C., 60 minutes): 83.3%; Percentage of the compound remaining in plasma (Stability in dog plasma; 37° C., 120 minutes): 70.1%
CCC(C)C(C(=O)OC)N(C)C(=O)OCOc1ccc([N+](=O)[O-])c2cccnc12 (centres unmarked) [Compound 56, methyl 3-methyl-2-(methyl(((5-nitroquinolin-8-yloxy)methoxy)formyl)amino)pentanoate]	39.8 µg/mL (≈ 98.2 µM)	0.44%	103.05%	100.0%	2.8%	0.1%	0.0%	0.0%	100.0%	98.9%	98.2%	103.6%	93.2%	14.94%	118.35%	0.45%	62.17%	0.12%	71.66%	high stability	
COC(=O)CN(C)C(=O)Oc1ccc([N+](=O)[O-])c2cccnc12 [Compound 57, methyl 2-(methyl((5-nitroquinolin-8-yloxy)formyl)amino)acetate]	138 µg/mL (≈ 432 µM)	5.57%	76.69%	100.0%	0.1%	0.0%	0.0%	0.0%	100.0%	99.8%	93.0%	76.2%	60.2%	0.03%	75.50%	23.06%	44.33%	0.16%	0.15%	high stability	
CC(C)(C)OP(=O)(OCOc1ccc([N+](=O)[O-])c2cccnc12)OC(C)(C)C [Compound 70, di-tert-butyl (5-nitroquinolin-8-yloxy)methyl phosphate]	998 µg/mL			100.0%	93.4%	80.7%	84.1%	72.9%	100.0%	85.6%	89.0%	75.2%	74.4%	91.42%	90.90%	94.34%	96.79%	91.20%	91.76%	high stability	solubility at 24 h ([1]; aqueous buffer, phosphate buffer pH 4.5, room temperature): 843 µg/mL; solubility at 24 h ([1]; aqueous buffer, phosphate buffer pH 6.8, room temperature): 940 µg/mL; water solubility compared with nitroxoline ([1]; conclusion in words): increased by several times; solubility at 24 h ([1]; simulated gastric fluid, phosphate buffer pH 1.2, room temperature): 639 µg/mL
CC(C)OC(=O)[C@H](C)NP(=O)(OCOc1ccc([N+](=O)[O-])c2cccnc12)Oc1ccccc1 (some centres unmarked) [Compound 75]				100.0%	0.0%	0.0%	0.0%	0.0%	100.0%	98.5%	94.0%	87.2%	65.5%	12.95%	48.90%	0.00%	0.02%	1.64%	6.45%	high stability	Percentage of the compound remaining in plasma (Stability in dog plasma; 0 minute): 100.0%; Percentage of the compound remaining in plasma (Stability in dog plasma; 37° C., 15 minutes): 98.3%; Percentage of the compound remaining in plasma (Stability in dog plasma; 37° C., 30 minutes): 95.6%; Percentage of the compound remaining in plasma (Stability in dog plasma; 37° C., 60 minutes): 80.8%; Percentage of the compound remaining in plasma (Stability in dog plasma; 37° C., 120 minutes): 67.8%
